From US11066396B2 (priority 2016, dated 2021)

How the values were obtained:
[1] = biological target: HDAC8 (Homo sapiens (Human), UniProt Q9BY41); settings: read-out: HDAC8 IC50
[2] = biological target: HDAC1 (Homo sapiens (Human), UniProt Q13547); settings: read-out: HDAC1 IC50
Sequence of HDAC1 (Q13547 whole entry): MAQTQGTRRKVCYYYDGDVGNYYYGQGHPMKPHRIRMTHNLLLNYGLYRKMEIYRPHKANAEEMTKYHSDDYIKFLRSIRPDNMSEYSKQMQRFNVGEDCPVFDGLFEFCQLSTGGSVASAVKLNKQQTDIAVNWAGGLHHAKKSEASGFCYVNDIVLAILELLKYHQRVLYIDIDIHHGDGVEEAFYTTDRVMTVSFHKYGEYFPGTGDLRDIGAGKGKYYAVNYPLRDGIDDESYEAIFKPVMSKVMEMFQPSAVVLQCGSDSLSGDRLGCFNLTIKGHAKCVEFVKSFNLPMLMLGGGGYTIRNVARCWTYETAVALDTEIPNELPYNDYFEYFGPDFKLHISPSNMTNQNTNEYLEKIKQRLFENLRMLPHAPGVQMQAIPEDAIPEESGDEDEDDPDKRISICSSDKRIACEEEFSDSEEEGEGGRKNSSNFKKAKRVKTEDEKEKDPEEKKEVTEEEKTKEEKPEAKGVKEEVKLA

Sequence of HDAC8 (Q9BY41 whole entry): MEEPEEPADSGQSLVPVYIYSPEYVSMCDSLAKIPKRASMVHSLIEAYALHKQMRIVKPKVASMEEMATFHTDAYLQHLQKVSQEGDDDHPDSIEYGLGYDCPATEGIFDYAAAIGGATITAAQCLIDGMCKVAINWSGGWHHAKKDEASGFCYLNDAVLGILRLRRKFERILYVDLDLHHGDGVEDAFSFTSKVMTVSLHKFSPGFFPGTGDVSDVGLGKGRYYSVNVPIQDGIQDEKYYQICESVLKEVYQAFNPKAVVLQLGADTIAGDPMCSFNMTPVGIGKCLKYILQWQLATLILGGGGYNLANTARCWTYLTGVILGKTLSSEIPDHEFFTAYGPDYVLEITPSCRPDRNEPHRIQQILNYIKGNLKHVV

SMILES | IC50 [1] [nM] | IC50 [2] [nM]
O=C1NCCN(c2ccc(-c3noc(C(F)(F)F)n3)cn2)C1c1cccc(F)c1 (racemic) [Example 132, 3-(3-fluorophenyl)-4-(5-(5-(trifluoromethyl)-1,2,4-oxadiazol-3-yl)pyridin-2-yl)piperazin-2-one] | 630 | 
FC(F)(F)c1cccc(C2COCCN2c2ccc(-c3noc(C(F)(F)F)n3)cn2)c1 (racemic) [Example 146, 4-(5-(5-(trifluoromethyl)-1,2,4-oxadiazol-3-yl)pyridin-2-yl)-3-(3-(trifluoromethyl)phenyl)morpholine] | 20000 | 
FC(F)(F)c1nc(-c2ccc(N3CCCCC3c3ccccn3)nc2)no1 (racemic) [Example 147, 3-(6-(2-(pyridin-2-yl)piperidin-1-yl)pyridin-3-yl)-5-(trifluoromethyl)-1,2,4-oxadiazole] | 3200 | 
FC(F)(F)c1nc(-c2ccc(N3CCCC3c3ccncc3)nc2)no1 (racemic) [Example 150, 3-(6-(2-(pyridin-4-yl)pyrrolidin-1-yl)pyridin-3-yl)-5-(trifluoromethyl)-1,2,4-oxadiazole] | 1800 | 
FC(F)(F)c1nc(-c2ccc(N3CCCC3c3cccnc3)nc2)no1 (racemic) [Example 151, 3-(6-(2-(pyridin-3-yl)pyrrolidin-1-yl)pyridin-3-yl)-5-(trifluoromethyl)-1,2,4-oxadiazole] | 1600 | 
OCC1CC(c2ccccc2)N(c2ccc(-c3noc(C(F)(F)F)n3)cn2)C1 (racemic) [Example 152, (5-phenyl-1-(5-(5-(trifluoromethyl)-1,2,4-oxadiazol-3-yl)pyridin-2-yl)pyrrolidin-3-yl)methanol] | 840 | 
FC(F)(F)c1nc(-c2ccc(N3CCCC3c3ccccn3)nc2)no1 (racemic) [Example 154, 3-(6-(2-(pyridin-2-yl)pyrrolidin-1-yl)pyridin-3-yl)-5-(trifluoromethyl)-1,2,4-oxadiazole] | 3400 | 
Cc1nonc1C1CCCN1c1ccc(-c2noc(C(F)(F)F)n2)cn1 (racemic) [Example 155, 3-(6-(2-(4-methyl-1,2,5-oxadiazol-3-yl)pyrrolidin-1-yl)pyridin-3-yl)-5-(trifluoromethyl)-1,2,4-oxadiazole] | 1800 | 
FC(F)(F)c1nc(-c2ccc(N3CCCCC3c3cccnc3)nc2)no1 (racemic) [Example 157, 3-(6-(2-(pyridin-3-yl)piperidin-1-yl)pyridin-3-yl)-5-(trifluoromethyl)-1,2,4-oxadiazole] | 3300 | 
CCOC(=O)N1CCN(c2ccc(-c3noc(C(F)(F)F)n3)cn2)C(c2ccccc2)C1 (racemic) [Example 159, ethyl 3-phenyl-4-(5-(5-(trifluoromethyl)-1,2,4-oxadiazol-3-yl)pyridin-2-yl)piperazine-1-carboxylate] | 4000 | 
FC(F)(F)c1nc(-c2ccc(CNCC3CN(Cc4ccccc4)CCO3)nc2)no1 (racemic) [Example 453, 1-(4-benzylmorpholin-2-yl)-N-({5-[5-(trifluoromethyl)-1,2,4-oxadiazol-3-yl]pyridin-2-yl}methyl)methanamine] | 1900 | 
FC(F)(F)c1nc(-c2ccc(CNCC3CN(c4ccccc4)CCO3)nc2)no1 (racemic) [Example 454, 1-(4-phenylmorpholin-2-yl)-N-({5-[5-(trifluoromethyl)-1,2,4-oxadiazol-3-yl]pyridin-2-yl}methyl)methanamine] | 1700 | 
Cc1nc2cc(F)ccc2n1Cc1ccc(-c2noc(C(F)(F)F)n2)cn1 [Example 466, 5-fluoro-2-methyl-1-({5-[5-(trifluoromethyl)-1,2,4-oxadiazol-3-yl]pyridin-2-yl}methyl)-1H-benzimidazole] |  | 840
O=c1cnc2ccccc2n1Cc1ccc(-c2noc(C(F)(F)F)n2)cn1 [Example 467, 1-({5-[5-(trifluoromethyl)-1,2,4-oxadiazol-3-yl]pyridin-2-yl}methyl)quinoxalin-2(1H)-one] |  | 170
